Assay results published in ChEMBL document CHEMBL2380250, “Novel VEGFR-2 kinase inhibitors identified by the back-to-front approach” (Bioorg Med Chem Lett, 2013).
Activity calls are given as the source filed them. The calls are words filed in the database; no cut-off is given here.

Key:
[1] = molecular target: Epidermal growth factor receptor (Homo sapiens) (UniProt P00533); experiment: Inhibition of human recombinant EGFR expressed in insect cells using Ulight-CAGAGAIETDKEYYTVKD as substrate at 1 uM after 15 to 60 mins by fluorescence assay
[2] = molecular target: Platelet-derived growth factor receptor beta (Homo sapiens) (UniProt P09619); experiment: Inhibition of human recombinant PDGFR-beta expressed in insect cells using Ulight-Poly GAT[EAY(1:1:1)] as substrate at 1 uM after 15 to 60 mins by fluorescence assay
[3] = Cytotoxicity against human H460 cells assessed as growth inhibition by MTT assay; format: cell-based; details: NCI-H460
HepG2 = experiment: Cytotoxicity against human HepG2 cells assessed as growth inhibition by MTT assay; format: cell-based
[4] = molecular target: Vascular endothelial growth factor receptor 2 (Homo sapiens, UniProt P35968); experiment: Inhibition of human recombinant VEGFR2 expressed in insect cells using Ulight-CAGAGAIETDKEYYTVKD as substrate after 15 to 60 mins by fluorescence assay
MCF7 = experiment: Cytotoxicity against human MCF7 cells assessed as growth inhibition by MTT assay; format: cell-based
[5] = Ratio of cytotoxicity against human EAhy926 cells to antiangiogenic activity in VEGF-stimulated human EAhy926 cells; format: toxicity, cell-based
HeLa = experiment: Cytotoxicity against human HeLa cells assessed as growth inhibition by MTT assay; format: cell-based
[6] = Cytotoxicity against human EAhy926 cells assessed as growth inhibition by MTT assay; format: cell-based; details: EA.hy 926
EA.hy 926 = experiment: Antiangiogenic activity in VEGF-stimulated human EAhy926 cells assessed as inhibition of tube formation at 0.3 uM measured at 24 hrs; format: functional, cell-based
HUVEC = experiment: Cytotoxicity against HUVEC by MTT assay; details: Homo sapiens

Sequence of Epidermal growth factor receptor (Homo sapiens) (P00533 whole entry): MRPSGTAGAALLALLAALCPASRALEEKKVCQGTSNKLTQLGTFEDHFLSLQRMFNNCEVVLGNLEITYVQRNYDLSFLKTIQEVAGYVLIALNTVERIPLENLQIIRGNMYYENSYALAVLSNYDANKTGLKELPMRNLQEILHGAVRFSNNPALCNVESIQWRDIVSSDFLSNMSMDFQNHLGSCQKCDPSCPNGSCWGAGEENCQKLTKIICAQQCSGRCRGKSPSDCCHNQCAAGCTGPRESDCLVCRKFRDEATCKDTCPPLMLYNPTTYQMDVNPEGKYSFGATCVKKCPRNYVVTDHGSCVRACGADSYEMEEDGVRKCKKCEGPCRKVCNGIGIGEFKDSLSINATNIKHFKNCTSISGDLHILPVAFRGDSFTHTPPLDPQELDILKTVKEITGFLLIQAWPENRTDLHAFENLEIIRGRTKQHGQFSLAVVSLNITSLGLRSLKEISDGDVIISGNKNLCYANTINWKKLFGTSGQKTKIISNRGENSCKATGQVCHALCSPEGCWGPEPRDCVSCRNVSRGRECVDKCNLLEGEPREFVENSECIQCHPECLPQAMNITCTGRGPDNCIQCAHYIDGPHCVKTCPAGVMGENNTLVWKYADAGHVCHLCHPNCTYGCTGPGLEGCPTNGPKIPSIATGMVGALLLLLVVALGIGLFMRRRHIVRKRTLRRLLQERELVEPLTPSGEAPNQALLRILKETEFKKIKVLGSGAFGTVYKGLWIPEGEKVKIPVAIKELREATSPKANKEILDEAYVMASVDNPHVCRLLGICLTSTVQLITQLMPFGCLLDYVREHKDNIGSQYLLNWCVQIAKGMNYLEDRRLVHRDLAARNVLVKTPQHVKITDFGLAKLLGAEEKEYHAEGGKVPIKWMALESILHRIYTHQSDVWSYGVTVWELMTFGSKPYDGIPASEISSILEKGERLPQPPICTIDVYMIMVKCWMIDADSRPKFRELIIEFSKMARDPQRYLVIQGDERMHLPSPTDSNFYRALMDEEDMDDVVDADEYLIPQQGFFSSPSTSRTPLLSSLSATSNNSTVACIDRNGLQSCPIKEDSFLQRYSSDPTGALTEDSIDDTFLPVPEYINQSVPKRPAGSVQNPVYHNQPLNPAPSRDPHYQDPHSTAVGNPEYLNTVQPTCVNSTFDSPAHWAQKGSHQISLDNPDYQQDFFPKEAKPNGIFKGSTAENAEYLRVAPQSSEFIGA
Sequence of Platelet-derived growth factor receptor beta (Homo sapiens) (P09619 whole entry): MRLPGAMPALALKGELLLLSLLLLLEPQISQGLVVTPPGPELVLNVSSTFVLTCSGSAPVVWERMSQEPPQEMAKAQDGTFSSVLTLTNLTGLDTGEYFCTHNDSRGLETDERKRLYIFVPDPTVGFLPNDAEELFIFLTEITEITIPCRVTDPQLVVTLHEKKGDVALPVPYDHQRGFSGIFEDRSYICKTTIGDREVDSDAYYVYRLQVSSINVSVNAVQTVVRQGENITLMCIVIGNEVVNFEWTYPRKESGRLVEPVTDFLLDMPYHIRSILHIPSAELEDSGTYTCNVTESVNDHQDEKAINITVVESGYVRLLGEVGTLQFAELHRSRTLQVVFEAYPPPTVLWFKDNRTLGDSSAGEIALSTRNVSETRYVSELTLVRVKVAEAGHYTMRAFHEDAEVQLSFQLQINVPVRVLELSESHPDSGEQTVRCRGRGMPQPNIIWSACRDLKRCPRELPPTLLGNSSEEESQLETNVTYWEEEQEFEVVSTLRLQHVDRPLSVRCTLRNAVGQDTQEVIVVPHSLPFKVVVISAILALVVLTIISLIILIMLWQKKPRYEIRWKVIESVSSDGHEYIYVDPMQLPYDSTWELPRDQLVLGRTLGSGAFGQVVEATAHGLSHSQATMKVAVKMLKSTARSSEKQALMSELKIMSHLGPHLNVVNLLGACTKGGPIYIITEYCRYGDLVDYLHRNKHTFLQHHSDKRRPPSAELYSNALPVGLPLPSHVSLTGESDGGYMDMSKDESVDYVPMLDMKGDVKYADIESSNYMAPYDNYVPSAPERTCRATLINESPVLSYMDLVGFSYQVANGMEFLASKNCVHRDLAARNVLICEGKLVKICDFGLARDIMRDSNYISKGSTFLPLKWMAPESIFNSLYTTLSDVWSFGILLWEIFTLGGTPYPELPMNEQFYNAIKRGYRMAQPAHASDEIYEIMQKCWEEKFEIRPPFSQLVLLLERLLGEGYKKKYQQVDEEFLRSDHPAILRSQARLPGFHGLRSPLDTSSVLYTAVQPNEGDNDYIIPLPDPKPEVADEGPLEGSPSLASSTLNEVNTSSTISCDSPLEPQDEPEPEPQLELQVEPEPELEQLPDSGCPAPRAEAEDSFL
Sequence of Vascular endothelial growth factor receptor 2 (P35968 whole entry): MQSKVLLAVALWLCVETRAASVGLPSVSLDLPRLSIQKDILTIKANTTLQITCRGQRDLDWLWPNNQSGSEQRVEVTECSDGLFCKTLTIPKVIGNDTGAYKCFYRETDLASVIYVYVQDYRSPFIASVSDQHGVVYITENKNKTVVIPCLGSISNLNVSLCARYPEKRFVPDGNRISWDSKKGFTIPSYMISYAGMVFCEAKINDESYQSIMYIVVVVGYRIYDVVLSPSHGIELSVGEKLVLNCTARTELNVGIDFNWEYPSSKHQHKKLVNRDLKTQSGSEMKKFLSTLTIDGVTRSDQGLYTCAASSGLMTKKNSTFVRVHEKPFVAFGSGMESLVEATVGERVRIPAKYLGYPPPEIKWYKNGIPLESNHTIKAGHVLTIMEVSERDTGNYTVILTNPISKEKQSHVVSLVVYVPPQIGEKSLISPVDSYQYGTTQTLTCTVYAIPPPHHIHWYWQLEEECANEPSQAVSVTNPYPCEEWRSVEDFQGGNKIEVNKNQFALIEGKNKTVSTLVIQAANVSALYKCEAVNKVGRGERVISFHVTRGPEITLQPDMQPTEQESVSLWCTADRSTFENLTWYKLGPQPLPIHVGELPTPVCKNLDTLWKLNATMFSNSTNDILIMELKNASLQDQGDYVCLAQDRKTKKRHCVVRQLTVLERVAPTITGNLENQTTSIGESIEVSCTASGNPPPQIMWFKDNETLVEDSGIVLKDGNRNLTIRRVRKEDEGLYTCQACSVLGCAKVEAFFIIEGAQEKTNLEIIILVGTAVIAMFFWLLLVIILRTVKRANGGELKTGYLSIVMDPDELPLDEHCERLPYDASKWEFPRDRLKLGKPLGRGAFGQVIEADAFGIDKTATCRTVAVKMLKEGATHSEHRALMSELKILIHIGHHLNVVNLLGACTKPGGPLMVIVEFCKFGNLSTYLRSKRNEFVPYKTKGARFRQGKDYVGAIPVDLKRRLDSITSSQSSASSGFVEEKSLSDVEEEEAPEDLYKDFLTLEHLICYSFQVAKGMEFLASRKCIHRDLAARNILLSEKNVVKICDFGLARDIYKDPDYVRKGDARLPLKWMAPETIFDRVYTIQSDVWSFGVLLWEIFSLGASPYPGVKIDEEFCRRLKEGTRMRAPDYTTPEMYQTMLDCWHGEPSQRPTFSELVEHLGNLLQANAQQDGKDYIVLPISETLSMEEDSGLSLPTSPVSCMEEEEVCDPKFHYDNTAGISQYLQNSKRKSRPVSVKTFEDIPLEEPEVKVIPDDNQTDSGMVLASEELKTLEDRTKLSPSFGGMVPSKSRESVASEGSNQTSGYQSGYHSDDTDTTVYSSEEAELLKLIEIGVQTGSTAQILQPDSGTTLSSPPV

Row | inhibition [1] | inhibition [2] | Compound | also measured
1 | Active | inactive | COC(=O)c1ccc(-n2cc(CNC(=O)Nc3cccc(CCl)c3)nn2)cc1 | 
2 | Active | inactive | O=C(NCc1cn(-c2ccc3cn[nH]c3c2)nn1)Nc1cccc(CCl)c1 | IC50 [3]: 71 µM; IC50 (HepG2): > 100 µM; IC50 [4]: 0.56 µM; IC50 (MCF7): 21 µM; selectivity ratio [5]: 13; IC50 (HeLa): 33 µM; IC50 [6]: 4 µM; inhibition (EA.hy 926): Active
3 | Active | inactive | C#CCNC(=O)Nc1cccc(CCl)c1 | 
4 | Active | inactive | NS(=O)(=O)c1ccc(-n2cc(CNC(=O)Nc3cccc(CCl)c3)nn2)cc1 | 
5 | Active | inactive | O=C(NCc1cn(-c2ccc3scnc3c2)nn1)Nc1cccc(CCl)c1 | 
6 | Active | inactive | O=C(NCc1cn(-c2ccc(S(=O)(=O)N3CCOCC3)cc2)nn1)Nc1cccc(CCl)c1 | 
7 | Active | inactive | O=C(NCc1cn(-c2ccc3ncsc3c2)nn1)Nc1cccc(CCl)c1 | 
8 | Active | inactive | CC(=O)N1CCc2ccc(-n3cc(CNC(=O)Nc4cccc(CCl)c4)nn3)cc21 | 
9 | Active | inactive | O=C(NCc1cn(-c2ccc3[nH]ncc3c2)nn1)Nc1cccc(CCl)c1 | 
10 | Active | inactive | O=C(NCc1cn(Cc2cc(=O)[nH]c3ccccc23)nn1)Nc1cccc(CCl)c1 | 
11 | Active | inactive | NS(=O)(=O)c1cccc(-n2cc(CNC(=O)Nc3cccc(CCl)c3)nn2)c1 | 
12 | Active | inactive | O=C(NCc1cn(CCN2C(=O)c3ccccc3C2=O)nn1)Nc1cccc(CCl)c1 | 
13 |  |  | CNC(=O)c1cc(Oc2ccc(NC(=O)Nc3ccc(Cl)c(C(F)(F)F)c3)cc2)ccn1 [SORAFENIB] | IC50 (HUVEC): 4 µM
